Entries after “also recorded” stand apart in the source; their conditions may differ. Read-outs that look alike come from different tables or passages of the source.
Assays:
[1] = Plasma concentrations of the transporter inhibitors around expected time to Cmax; format: in vivo, healthy male subjects; conditions: cimetidine 400 mg multiple doses; current study
[2] = for AUC0–tz Ratio T/R / Cmax Ratio T/R: cocktail + probenecid vs cocktail alone
[3] = for AUC0–tz Ratio T/R / Cmax Ratio T/R: cocktail + cimetidine vs cocktail alone
[4] = cited from earlier work
[5] = Safety and tolerability assessment; format: in vivo, healthy male subjects; conditions: one subject, upon administration of probenecid 1000 mg
[6] = cocktail + rifampin vs cocktail alone
[7] = cocktail + verapamil vs cocktail alone
[8] = cocktail with single-dose rifampin vs cocktail alone
[9] = cocktail with single-dose verapamil vs cocktail alone
[10] = cocktail (metformin 10 mg) with cimetidine vs cocktail alone
[11] = cocktail (furosemide 1 mg) with probenecid vs cocktail alone
[12] = metformin 500 mg with cimetidine vs alone

Row | AUC0–tz Ratio T/R [6] | Cmax Ratio T/R [6] | AUC0–tz Ratio T/R [7] | Cmax Ratio T/R [7] | increase of AUC0–tz [8] | increase of Cmax [8] | AUC0–tz Ratio T/R [2] | Cmax Ratio T/R [2] | increase of AUC0–tz [3, 10] | AUC0–tz Ratio T/R [3] | Cmax Ratio T/R [3] | decrease of CLR [2, 11] | SMILES | other results
1 |  |  |  |  |  |  |  |  |  |  |  |  | CN/C(=N/CCSCc1nc[nH]c1C)NC#N [Cimetidine, cimetidine] | maximum plasma concentrations [1]: 4.24 to 11.1 µM
2 | 131.41% | 218.26% | 100.70% | 121.64% | 31% | 118% | 106.78% | 87.07% | 26% | 125.61% | 122.03% |  | C[C@H]1O[C@@H](O[C@H]2[C@@H](O)C[C@H](O[C@H]3[C@@H](O)C[C@H](O[C@H]4CC[C@@]5(C)[C@H](CC[C@@H]6[C@@H]5C[C@@H](O)[C@]5(C)[C@@H](C7=CC(=O)OC7)CC[C@]65O)C4)O[C@@H]3C)O[C@@H]2C)C[C@H](O)[C@@H]1O [Digoxin, digoxin] | effect on AUC0–tz [9]: unaltered; also recorded: unchanged; effect on CLR [9]: unchanged; increase of Cmax [9]: 22%; effect of probenecid on systemic exposure ([2]; cocktail with probenecid vs cocktail alone): no relevant effect; increase in exposure ([4]; digoxin with verapamil administered over multiple days): 44–77%
3 |  |  |  |  |  |  |  |  |  |  |  | 74% | NS(=O)(=O)c1cc(C(=O)O)c(NCc2ccco2)cc1Cl [Furosemide, furosemide] | decrease of CLR ([2]; furosemide 40 mg with probenecid vs alone): 76%
4 |  |  |  |  |  |  |  |  | 31% |  |  |  | CN(C)C(=N)N=C(N)N [Metformin, metformin] | increase of Cmax [3, 10]: 23%; increase of AUC0–tz [3, 12]: 51%; increase of Cmax [3, 12]: 41%; increase in systemic exposure ([4]; metformin with cimetidine, previous findings): 45–70%; increase in exposure ([4]; metformin with rifampin coadministration): 10%
5 |  |  |  |  |  |  |  |  |  |  |  |  | CCCN(CCC)S(=O)(=O)c1ccc(C(=O)O)cc1 [Probenecid, probenecid] | AEs leading to premature withdrawal from treatment [5]: nausea, dizziness
6 | 348.06% | 1125.10% | 113.40% | 115.39% | 248% | 1025% | 223.24% | 428.23% |  | 107.42% | 116.88% | 78% | CC(C)c1nc(N(C)S(C)(=O)=O)nc(-c2ccc(F)cc2)c1/C=C/[C@@H](O)C[C@@H](O)CC(=O)O [Rosuvastatin, rosuvastatin] | effect of verapamil on systemic exposure [9]: no effect; increase of AUC0–tz [2, 11]: 123%; increase of Cmax [2, 11]: 328%; effect of cimetidine on systemic exposure ([3]; cocktail with cimetidine vs cocktail alone): no effect
